Consider 1 compound from patent publication US6656690B2, “Mass spectrometric methods for biomolecular screening” (priority 1998, dated 2003).

The target in assay [1] is 27-mer model of the bacterial A site region, full ribonucleotide R. Kind of assay: Binding to 27-mer A site model as full ribonucleotide (R). The settings on record: RNA R. On the procedure:
(§1) The 27-mer model of a segment of the bacterial A site region has been prepared as a full ribonucleotide (see FIG. 27, compound R), and as a chimeric 2′-O-methylribonucleotide containing three deoxyadenosine residues (see FIG. 27, compound C). RNAs R and C have been prepared using conventional phosphoramidite chemistry on solid support. Phosphoramidites were purchased from Glen Research and used as 0.1 M solutions in acetonitrile. RNA R was prepared following the procedure given in Wincott, et al., Nucl. Acids Res., 1995, 23, 2677-2684, the disclosure of which is incorporated herein by reference in its entirety. RNA C was prepared using standard coupling cycles, deprotected, and precipitated from 10 M NH4OAc. The aminoglycoside paromomycin binds to both R and C with kD values of 0.25 and 0.45 micromolar, respectively. The reported kD values are around 0.2 μM. […]
(§2) The mass spectrum obtained from a 5 μM solution of C mixed with 125 nM paromomycin (FIG. 28A) contains [M-5H]5− ions from free C at m/z 1783.6 and the [M-5H]5− ions of the paromomycin-C complex at m/z 1907.3. […] Signals from the [M-4H]4− ions of C and the complex are detected at m/z 2229.8 and 2384.4, respectively. […] Fragment ions are detected at m/z 1005.6 (w6)2−, 1065.8 (a7-B)2−, 1162.6 (w7)2−, 1756.5 (M-Ad)5−, 2108.9 (w21-Ad)3−, 2153.4 (a20-B)3−, 2217.8 (w21)3−, and 2258.3 (a21-B)3−. […]

In assay [2] the target is 27-mer model of the bacterial A site region, chimeric C. Briefly: Binding to 27-mer A site model as chimeric 2'-O-methylribonucleotide with three deoxyadenosines (C). Particulars: RNA C. As for the experimental part:
as §1, §2

In general, Kd refers to the free concentration of one partner at which half of the binding sites on the other are occupied at equilibrium, for simple one-to-one binding. `NC[C@@H]1O[C@H](O[C@H]2[C@@H](O)[C@H](O[C@@H]3[C@@H](O)[C@H](N)C[C@H](N)[C@H]3O[C@H]3O[C@H](CO)[C@@H](O)[C@H](O)[C@H]3N)O[C@@H]2CO)[C@H](N)[C@@H](O)[C@@H]1O` [paromomycin]: the Kd in assay [1] is 250 nM; in assay [2] it was 450 nM.
